# In patent publication US12195551B2, “Combination of an ErbB-2/ErbB-3 bispecific antibody with endocrine therapy for breast cancer” (Merus N.V., priority 2017, dated 2025):
# Where “and” joins values, the source holds several entries; their conditions need not be identical. Equal entries are not always repeated. Where two headings read alike, the source gives them in different places.
# Assays:
# HBCx-34 tumors = test: In vivo growth characteristics of the HBCx-34 PDX model (FIG. 4); set-up: species or system mouse; conditions: animals that did not receive estrogens, vs vehicle
# Protocol: FIG. 4. In vivo growth characteristics of the HBCx-34 PDX model. A, IHC characteristics of HBCx-34 PDX tumors. B, Athymic nude mice were engrafted s.c. with HBCx-34 tumors. […] T-tests were performed to compare tumor volumes from estrogen-independent tumors treated with vehicle or Letrozole (*, p<0.05, **, p<0.01, ***, p<0.001).
# [1] = test system: human HBCx-34 breast tumor xenograft; test: Antitumor efficacy in HBCx-34 patient-derived breast cancer xenograft (study XTS-1521); type: in vivo, mouse
# Protocol: Antitumor efficacy of an HER2/HER3 targeting antibody was determined in the context of a combination treatment together with an aromatase inhibitor. […] It was used as single agent and in combination with the aromatase inhibitor Letrozole. The hormone-dependent HBCx-34 patient-derived breast cancer xenograft model established in immunodeficient mice was used as an example of a breast cancer.
# The HBCx-34 PDX model was derived from a treatment-naïve primary breast infiltrating ductal carcinoma.
# Tumor-bearing mice received estrogen diluted in drinking water (β-oestradiol, 8.5 mg/l), from the date of tumor implant to the date of inclusion. During the treatment period, mice were not supplemented with estrogen.
# Tumors of the same passage were transplanted subcutaneously onto 6-24 mice (donor mice, passage (n−1)). When these tumors reached 1000 to 2000 mm^3, donor mice were sacrificed by cervical dislocation, tumors were aseptically excised and dissected. After removing necrotic areas, tumors were cut into fragments measuring approximately 20 mm^3 and transferred in culture medium before grafting.
# 95 mice were anaesthetized with 100 mg/kg ketamine hydrochloride (batch 5D92, Exp: 2017/03, Virbac) and 10 mg/kg xylazine (batch KP0AX9X, Exp: 2017/08, Bayer), and then skin was aseptized with a chlorhexidine solution, incised at the level of the interscapular region, and a 20 mm^3 tumor fragment was placed in the subcutaneous tissue. Skin was closed with clips. All mice from the same experiment were implanted on the same day.
# Treatments were randomly attributed to boxes housing up to 5 mice and were initiated 36 days post implantation of the tumor (42% inclusion rate). The study was terminated following 57 days after the start of treatment.
# Tumor volume was evaluated by measuring tumor diameters, with a calliper, biweekly during the experimental period.
# The formula TV (mm3)=[length (mm)×width (mm)2]/2 was used, where the length and the width are the longest and the shortest diameters of the tumor, respectively.
# A total of 4 groups were used as summarized in the scheme below. Each group initially included 10 mice.
# All treatment doses were body weight adjusted at each injection.
# HBCx-34 PDX model = conditions: model characterisation; cited from earlier work
# [2] = MCLA-128 25 mg/kg IP, Letrozole […] PO qdx57
# [3] = MCLA-128 25 mg/kg i.p., Letrozole […] p.o. qdx57, day of maximum as in text
compound,measurement,setting,value
N#Cc1ccc(C(c2ccc(C#N)cc2)n2cncn2)cc1 [Letrozole],formation of estrogen-independent tumors,HBCx-34 tumors,significantly reduced the formation of estrogen-independent tumors
same,Mann-Whitney test on tumor volume,"[1]; DAY 25, vs vehicle group",* (* = P < 0.05)
same,Mann-Whitney test on tumor volume,"[1]; DAY 28, vs vehicle group",* (* = P < 0.05)
same,Dunn's Multiple Comparison Test on tumor volume,"[1]; DAY 32, vs MCLA-128 25",* (* = P < 0.05)
same,Mann-Whitney test on tumor volume,"[1]; DAY 32, vs vehicle group",** (** = P < 0.01)
same,Dunn's Multiple Comparison Test on tumor volume,"[1]; DAY 35, vs MCLA-128 25",** (** = P < 0.01)
same,Dunn's Multiple Comparison Test on tumor volume,"[1]; DAY 35, vs Vehicle MCLA-128",* (* = P < 0.05)
same,Mann-Whitney test on tumor volume,"[1]; DAY 35, vs vehicle group",*** (*** = P < 0.001)
same,Dunn's Multiple Comparison Test on tumor volume,"[1]; DAY 39, vs MCLA-128 25",** (** = P < 0.01)
same,Dunn's Multiple Comparison Test on tumor volume,"[1]; DAY 39, vs Vehicle MCLA-128",* (* = P < 0.05)
same,Mann-Whitney test on tumor volume,"[1]; DAY 39, vs vehicle group",*** (*** = P < 0.001)
same,Dunn's Multiple Comparison Test on tumor volume,"[1]; DAY 42, vs MCLA-128 25",** (** = P < 0.01)
same,Dunn's Multiple Comparison Test on tumor volume,"[1]; DAY 42, vs Vehicle MCLA-128",* (* = P < 0.05)
same,Mann-Whitney test on tumor volume,"[1]; DAY 42, vs vehicle group",*** (*** = P < 0.001)
same,Dunn's Multiple Comparison Test on tumor volume,"[1]; DAY 46, vs MCLA-128 25",** (** = P < 0.01)
same,Dunn's Multiple Comparison Test on tumor volume,"[1]; DAY 46, vs Vehicle MCLA-128",* (* = P < 0.05)
same,Mann-Whitney test on tumor volume,"[1]; DAY 46, vs vehicle group",*** (*** = P < 0.001)
same,Dunn's Multiple Comparison Test on tumor volume,"[1]; DAY 49, vs MCLA-128 25",** (** = P < 0.01)
same,Dunn's Multiple Comparison Test on tumor volume,"[1]; DAY 49, vs Vehicle MCLA-128",* (* = P < 0.05)
same,Mann-Whitney test on tumor volume,"[1]; DAY 49, vs vehicle group",*** (*** = P < 0.001)
same,Dunn's Multiple Comparison Test on tumor volume,"[1]; DAY 53, vs MCLA-128 25",** (** = P < 0.01)
same,Dunn's Multiple Comparison Test on tumor volume,"[1]; DAY 53, vs Vehicle MCLA-128",* (* = P < 0.05)
same,Mann-Whitney test on tumor volume,"[1]; DAY 53, vs vehicle group",*** (*** = P < 0.001)
same,Dunn's Multiple Comparison Test on tumor volume,"[1]; DAY 56, vs MCLA-128 25",** (** = P < 0.01)
same,Dunn's Multiple Comparison Test on tumor volume,"[1]; DAY 56, vs Vehicle MCLA-128",* (* = P < 0.05)
same,Mann-Whitney test on tumor volume,"[1]; DAY 56, vs vehicle group",*** (*** = P < 0.001)
same,Best T/C %,[1]; [2],18.68%
same,Best TGE %,[1]; [2],145.70%
same,T/C % (at control group day end),[1]; [2],18.68%
same,TGI % (at control group day end),[1]; [2],121.97%
same,median TGD × 3 (In days),[1]; [2],>56 days
same,tumor growth inhibition (in words),"[1]; MCLA-128 25 mg/kg i.p., Letrozole […] p.o. qdx57",statistically significant tumor growth inhibition
same,Mann-Whitney test on tumor volume: STAT,"[1]; STAT column, vs vehicle group",*** (*** = P < 0.001)
same,TFS (Tumor Free Survivor),[1]; number of complete regressions recorded up to Group Day End,1
same,CR (complete regression),[1]; number of mice with 0 to 14 mm^3 tumor size during at least 3 consecutive measurements,1/10 and 1
same,TS (Tumor Stabilization),[1]; number of mice with constant tumor size during at least 6 consecutive measurements,1
same,PR (partial regression),[1]; number of mice with tumor size lower than initial during at least 6 consecutive measurements,7/10 and 7
same,p compared to the group control by Dunn's test,[1]; tumor growth inhibition,< 0.05
same,"p compared with the vehicle group, Mann Whitney test",[1]; tumor growth inhibition,< 0.001
same,response of the HBCx-34 PDX model,HBCx-34 PDX model,low responder
same,Dunn's Multiple Comparison Test on relative body weight,"DAY 25, vs MCLA-128 25",* (* = P < 0.05)
same,Dunn's Multiple Comparison Test on relative body weight,"DAY 28, vs Vehicle MCLA-128",* (* = P < 0.05)
same,Dunn's Multiple Comparison Test on relative body weight,"DAY 32, vs MCLA-128 25",** (** = P < 0.01)
same,Dunn's Multiple Comparison Test on relative body weight,"DAY 32, vs Vehicle MCLA-128",** (** = P < 0.01)
same,Dunn's Multiple Comparison Test on relative body weight,"DAY 35, vs MCLA-128 25",* (* = P < 0.05)
same,Dunn's Multiple Comparison Test on relative body weight,"DAY 35, vs Vehicle MCLA-128",** (** = P < 0.01)
same,Dunn's Multiple Comparison Test on relative body weight,"DAY 39, vs MCLA-128 25",** (** = P < 0.01)
same,Dunn's Multiple Comparison Test on relative body weight,"DAY 39, vs Vehicle MCLA-128",** (** = P < 0.01)
same,Dunn's Multiple Comparison Test on relative body weight,"DAY 42, vs Vehicle MCLA-128",** (** = P < 0.01)
same,Dunn's Multiple Comparison Test on relative body weight,"DAY 46, vs MCLA-128 25",** (** = P < 0.01)
same,Dunn's Multiple Comparison Test on relative body weight,"DAY 46, vs Vehicle MCLA-128",** (** = P < 0.01)
same,Dunn's Multiple Comparison Test on relative body weight,"DAY 49, vs MCLA-128 25",** (** = P < 0.01)
same,Dunn's Multiple Comparison Test on relative body weight,"DAY 49, vs Vehicle MCLA-128",** (** = P < 0.01)
same,Dunn's Multiple Comparison Test on relative body weight,"DAY 53, vs MCLA-128 25",** (** = P < 0.01)
same,Dunn's Multiple Comparison Test on relative body weight,"DAY 53, vs Vehicle MCLA-128",** (** = P < 0.01)
same,Dunn's Multiple Comparison Test on relative body weight,"DAY 56, vs MCLA-128 25",** (** = P < 0.01)
same,Dunn's Multiple Comparison Test on relative body weight,"DAY 56, vs Vehicle MCLA-128",** (** = P < 0.01)
same,maximum individual body weight loss,[3],4.1%
same,maximum mean body weight loss,[3],no mean body weight loss
